Experimental findings from ChEMBL document CHEMBL1201862, “PubChem BioAssay data set” (2004) are described below.

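Cultured in 96-well plates, cells were exposed to test compound for 48 hours across five concentrations. Here, GI50 denotes the concentration required for 50% inhibition of growth.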 The source made the active and inactive calls. Cut-off read from the data, not from the text of the source: active = GI50 up to about 1.1 µM and inactive = higher.

Holding throughout (assay): growth of human tumour cells (NCI), 48 h
The test system of test [1] is SF-268.
Test [2] relates to SK-MEL-28.
For test [3], the system named is OVCAR-3.
Test [4] concerns SF-295.
Test [5] has as its system Hs-578T.
Test [6] has as its system SK-MEL-5.
In test [7] the test system is SW-620.
In test [8] the test system is A549.
Test [9] concerns HCT-15.
Test [10] relates to SNB-75.
Test [11] concerns MOLT-4.
Test [12] concerns HCT-116.
For test [13], the system named is Malme-3M.
For test [14], the system named is CAKI-1.
Test [15] relates to COLO 205.
Test [16] concerns MDA-MB-231.
Test [17] concerns BT-549.
Test [18] deals with EKVX.
For test [19], the system named is SNB-19.
Test [20] deals with MCF7.

Take `CC(=O)ON(C(C)=O)c1ccc(-c2nc3ccccc3s2)cc1C`: the GI50 in test [1] is 52.1 µM (inactive); in [2] it was 76.4 µM (inactive); in [3], 25.8 µM (inactive); in [4] it was 31.6 µM (inactive); in test [5], 37.8 µM (inactive); in test [6], 21.5 µM (inactive). Also, the GI50 in test [7] was 38.3 µM (inactive); in [8] it was 28.7 µM (inactive); in test [9], 12.9 µM; in test [10], 74.1 µM (inactive); in test [11], 66.7 µM (inactive); in test [12] it was 23.4 µM (inactive). Moreover, the GI50 in test [13] was > 100 µM (inactive); in [14] it was 10.4 µM (inactive); in test [15], 20.5 µM (inactive); in test [16] it was 33.8 µM (inactive); in [17], 70.5 µM (inactive); in [18], 2.77 µM (inactive). For the same compound, the GI50 in [19] is 50.1 µM (inactive).
Consider `CCOC(=O)C1CCC(=O)N1C(=O)c1ccccc1` (stereo unspecified), for which the GI50 in test [20], in [1], in test [2], in [3], in test [4] and in test [5] was > 100 µM (inactive) each time. For the same compound, the GI50 in test [6] is > 100 µM (inactive); in test [7], > 100 µM (inactive); in [8], > 100 µM (inactive); in test [9], over 100 µM; in test [11], > 100 µM (inactive); in [12] it was > 100 µM (inactive). The GI50 in test [13], in test [14], in test [16], in test [17], in test [18] and in test [19] was > 100 µM (inactive) each time.
With `O=C1CCC2(c3ccccc3)Nc3ccncc3N12` (stereo unspecified), the GI50 in [20], in test [1], in test [3], in test [4], in [5] and in test [7] was > 10 µM (inactive) each time. For the same compound, the GI50 in test [8] is > 10 µM (inactive); in test [9], over 10 µM; in [10], > 10 µM (inactive); in test [11], > 10 µM (inactive); in test [12], > 10 µM (inactive); in [13] it was > 10 µM (inactive). Further, the GI50 in test [16], in test [17], in test [18] and in test [19] was > 10 µM (inactive) each time.
`COc1ccccc1NC(=S)N/N=C/c1c(C)n(C)n(-c2ccccc2)c1=O`: the GI50 in [20] was > 100 µM (inactive); in test [1], 45.1 µM (inactive); in [2], > 100 µM (inactive); in [4] it was 59.3 µM (inactive); in test [5], 37.8 µM (inactive); in [6] it was > 100 µM (inactive). Besides, the GI50 in test [7] was 91.8 µM (inactive); in test [9] it was 41.3 µM; in test [10], 49 µM (inactive); in test [11], 41.5 µM (inactive); in [12], > 100 µM (inactive); in [14], > 100 µM (inactive). In addition, the GI50 in test [15], in test [16], in test [17], in [18] and in test [19] was > 100 µM (inactive) each time.
For the compound `CN1C(NCCO)=NS(=O)(=O)c2ccccc21`, the GI50 in test [20], in test [1], in [2], in test [3], in test [4] and in test [5] was > 100 µM (inactive) each time. Further, the GI50 is > 100 µM (inactive) in [6]; > 100 µM (inactive) in [7]; > 100 µM (inactive) in test [8]; over 100 µM in [9]; > 100 µM (inactive) in test [11]; > 100 µM (inactive) in test [12]. The GI50 in [14], in test [15], in test [16], in test [17], in test [18] and in test [19] was > 100 µM (inactive) in each case.
For the compound `COc1ccc(CCNC(=O)CCCCCO)cc1OC`, the GI50 in [20], in test [1], in test [2], in test [3], in test [4] and in test [5] was > 100 µM (inactive) throughout. The GI50 in test [6] was > 100 µM (inactive); in [7], > 100 µM (inactive); in test [8], > 100 µM (inactive); in [9] it was over 100 µM; in test [10], > 100 µM (inactive); in [11], > 100 µM (inactive). Moreover, the GI50 in test [12], in test [14], in test [15], in test [16], in [17] and in test [18] was > 100 µM (inactive) throughout. Moreover, the GI50 in test [19] is > 100 µM (inactive).
In the case of `C#CC(O)/C=C/CCCCCCC#CC/C=C\CC#CCCCCCC/C=C/C(O)C#C` (stereo unspecified), the GI50 in test [20] is 10.8 µM (inactive); in [1] it was 2.96 µM (inactive); in [2], 1.77 µM (inactive); in test [3], 2.7 µM (inactive); in test [4], 13.9 µM (inactive); in [5] it was 5.9 µM (inactive). Further, the GI50 is 1.44 µM (inactive) in test [6]; 2.35 µM (inactive) in test [7]; 2.59 µM (inactive) in test [8]; 2.55 µM in test [9]; 7.19 µM (inactive) in test [10]; 0.111 µM (active) in test [11]. In addition, the GI50 in test [12] is 1.57 µM (inactive); in test [14], 2.29 µM (inactive); in [15] it was 2 µM (inactive); in test [16], 2.99 µM (inactive); in test [17] it was 2.86 µM (inactive); in [18], 2.3 µM (inactive). The GI50 in [19] is 12.4 µM (inactive).
Consider `N=C(N)N/N=C/c1c(-c2ccc(Cl)c(Cl)c2Cl)nc2sccn12`, for which the GI50 is 2.05 µM (inactive) in [20]; 1.76 µM (inactive) in test [1]; 1.73 µM (inactive) in test [2]; 1.57 µM (inactive) in test [3]; 1.79 µM (inactive) in [4]; 1.91 µM (inactive) in [5]. Moreover, the GI50 was 1.74 µM (inactive) in test [6]; 1.69 µM (inactive) in [7]; 1.53 µM (inactive) in [8]; 1.63 µM in test [9]; 1.49 µM (inactive) in test [10]; 1.55 µM (inactive) in [12]. The GI50 is 1.82 µM (inactive) in [14]; 1.42 µM (inactive) in test [15]; 1.21 µM (inactive) in [16]; 1.56 µM (inactive) in test [17]; 1.5 µM (inactive) in [18]; 1.33 µM (inactive) in test [19].
`CCc1nn(CN2CCN(C)CC2)c(=S)n1/N=C\c1ccc(-c2ccc([N+](=O)[O-])cc2)o1`: the GI50 was 40.5 µM (inactive) in test [20]; 37.8 µM (inactive) in test [1]; 30.6 µM (inactive) in test [3]; 40.7 µM (inactive) in test [4]; 56.9 µM (inactive) in test [5]; 40.5 µM (inactive) in test [6]. The GI50 in test [8] was 36.2 µM (inactive); in test [9], 61.9 µM; in test [11], 34.7 µM (inactive); in test [12] it was 58.5 µM (inactive); in test [13], 42 µM (inactive); in [14], 74.5 µM (inactive). Moreover, the GI50 is 39.1 µM (inactive) in [16], 37 µM (inactive) in [17], 43.4 µM (inactive) in test [18] and 33.7 µM (inactive) in test [19].
Regarding `Cc1ccnc(NC(=S)Nc2ccc([N+](=O)[O-])cc2)c1`, the GI50 in test [20] is > 100 µM (inactive); in test [1], 63.5 µM (inactive); in test [2], > 100 µM (inactive); in [4] it was 62.8 µM (inactive); in test [5], 24 µM (inactive); in [6] it was > 100 µM (inactive). Moreover, the GI50 in test [7] was > 100 µM (inactive); in [9], over 100 µM; in [10], 44.6 µM (inactive); in test [11], > 100 µM (inactive); in [12], > 100 µM (inactive); in [17], > 100 µM (inactive). Also, the GI50 in test [18] and in test [19] was > 100 µM (inactive) in each case.
As for `COc1ccc(NC(=O)C2=C(SC)C(C#N)C(=O)N=C2N)cc1` (stereo unspecified), the GI50 in test [20] is > 100 µM (inactive); in test [1], > 100 µM (inactive); in test [2] it was > 100 µM (inactive); in [3], > 100 µM (inactive); in [4], > 100 µM (inactive); in test [5], 89.1 µM (inactive). In addition, the GI50 in [6] was > 100 µM (inactive); in test [7], 67.1 µM (inactive); in [8] it was > 100 µM (inactive); in test [9], over 100 µM; in test [11], 55.3 µM (inactive); in test [12], > 100 µM (inactive). Moreover, the GI50 in [13] was 26.9 µM (inactive); in test [14] it was 46.3 µM (inactive); in test [15], 55.7 µM (inactive); in test [16], > 100 µM (inactive); in test [17], > 100 µM (inactive); in test [18], > 100 µM (inactive). In test [19], the GI50 is > 100 µM (inactive).
On to `Cc1ccc(C(=O)/C=C2\Nc3ccccc3SC2=O)c(C)c1`, for which the GI50 in test [20] was 31 µM (inactive); in [1] it was 25.1 µM (inactive); in test [2] it was 51.1 µM (inactive); in [3], 34.1 µM (inactive); in test [4], 46.5 µM (inactive); in test [5] it was 32.6 µM (inactive). Besides, the GI50 in [6] was 38.5 µM (inactive); in test [8] it was 53.3 µM (inactive); in [9], 20.8 µM; in test [11], 37.7 µM (inactive); in [12], 38 µM (inactive); in test [13], 84.3 µM (inactive). For the same compound, the GI50 in test [14] is 37.2 µM (inactive); in [15], 53.1 µM (inactive); in test [16], > 100 µM (inactive); in [17], 6.9 µM (inactive); in [18], 54.3 µM (inactive); in [19], 45.3 µM (inactive).
